According to PMC11696576, “Next generation thiazolyl ketone inhibitors of cytosolic phospholipase A2 α for targeted cancer therapy” (Nature Communications, 2025):
Values joined by “and” are separate entries in the source; they are usually repeats but may differ in a detail not shown here. Identical values can stand only once. Like-named read-outs stand apart in the source and are kept apart here.

Test system: panel of 66 cancer cell lines
Assay: cancer cell line screen, proliferation assay (ATPlite, 72 h)
Assay type: cell-based, human
Conditions: for raw signal, dose-response (Figure S7a): rep1, rep2, listed as AVX235; for IC50: Homo sapiens
Source text: Targeting specific molecular vulnerabilities in cancer is considered a key approach to reducing the adverse effects of chemotherapy. However, the events that govern the susceptibility to suppression of the cPLA2α in cancer remain largely unexplored. We therefore took the approach of screening the antiproliferative activity of AVX420 in a panel of 66 cancer cell lines (hereafter referred to as the cancer cell line screen or CCLS) to allow us to investigate molecular and genetic vulnerabilities to the drug.
Screening of compound activities in 66 cancer cell lines was carried out at the Netherlands Translation Research Center. Briefly, proliferation assays were performed 72 h after compound addition using ATPlite 1step reagent (Perkin Elmer). IC50s calculated by non-linear regression analysis were used as a measure of compound activity for investigating associations with genetic factors. A complete description of the laboratory and data analysis methods are available in the Supplementary Information file (Supplemental Methods: Cancer Cell Line Screening).
Cancer cell line screening
Cell proliferation assays
All cell lines were from the American Type Culture Collection (ATCC) Manassas, Virginia (US) and maintained under ATCC-recommended protocols and within 9 pas- […]
DMSO at -80°C until one hour before use. Cells exposed within one hour after thaw-ing of the compound stocks. Final compound concentration range in the assay was 10 […]
cated by supplier. Compounds were dissolved in 100 % DMSO and stored at room temperature. Final concentration of the reference compounds in the assay was 3.16x10-5 M to 3.16x10-9 M. The final DMSO concentration during incubation was […]
Cell lines were plated in Advanced RPMI 1640 (Gibco, ref 12633-012) cell culture medium, containing 1% Glutamax solution (Gibco, ref 35050-038), 0.4% Pen Strep solution (Gibco, ref 15140-122) and bovine serum. The cPLA2α inhibitors were tested in 0.5% bovine serum (HyClone, ref SH30072.03) with the exception of769-P, A-204, BT-549, SR, T98G, which were tested in the presence of 1.0% serum and A-704 and LNCaP FGS, which were tested in the in the presence of 10% serum. Reference com-pounds were all tested in the presence of 10% bovine serum.
Cells were dispensed in a 384-well plate, at a concentration of 200 - 3200 cells per well, depending on the cell line, in 45 μL medium. Plated cells were incubated in a humidified atmosphere of 5% CO2 at 37 °C. After 24 hours, 5 μL of compound dilu-tion was added and plates were further incubated for another 72 hours. After 72 hours, 25 μL of ATPlite 1Step™ (PerkinElmer) solution was added to each well, and subse-quently shaken for 2 minutes. After 10 minutes of incubation in the dark, the lumines-cence was recorded on an Envision multimode reader (PerkinElmer).
Cell growth control. The cellular doubling times of all cell lines are calculated from the t = 0 hours and t = 72 hours growth signals of the untreated cells. If the doubling time is out of specification (0.5 – 2.0 times deviating from historic average) the assay […]
IC50s were calculated by non-linear regression using IDBS XLfit 5. The percentage growth after 72h (%-growth) was calculated as follows: 100% x (luminescence t = 72h / luminescence untreated,t=72h). This was fitted to the 10log compound concentration (conc) by a 4-parameter logistics curve: %-growth = bottom + (top – bottom) / (1+ 10(logIC50 – conc)*hill)), where hill is the Hill-coefficient, and bottom and top the asymptotic mini-mum and maximum cell growth that the compound allows in that assay.
All analysis were performed in the statistical software package R and visualized using GraphPad Prism version 10.0 .0

pIC50 (769P, kidney): 4,709
pIC50 (786O, kidney): 4,868
pIC50 (A172, central_nervous_system): 4,701
pIC50 (A204, soft_tissue): 4,858
pIC50 (A375, skin): 4,792
pIC50 (A427, lung): 4,933
pIC50 (A498, kidney): 4,604
pIC50 (A549, lung): 4,718
pIC50 (ACHN, kidney): 4,677
pIC50 (AN3CA, endometrium): 4,738
pIC50 (AU565, breast): 4,915
pIC50 (AsPC1, pancreas): 4,828
pIC50 (BT20, breast): 4,526
pIC50 (BT549, breast): 4,643
pIC50 (BxPC3, pancreas): 4,719
pIC50 (C33A, cervix): 4,835
pIC50 (CAL27, upper_aerodigestive_tract): 4,767
pIC50 (COLO829, unknown): 4,775
pIC50 (Daoy, central_nervous_system): 4,799
pIC50 (DoTc24510, cervix): 4,777
pIC50 (FaDu, upper_aerodigestive_tract): 4,794
pIC50 (HCT15, large_intestine): 4,921
pIC50 (HCT116, large_intestine): 4,798
IC50 (769-P, read-out: IC50): 19.6 µM
IC50 (786-0, 786-O, read-out: IC50): 13.6 µM
IC50 (72 h, panel average, 72 h, read-out: average IC50 in the cancer cell line screen): 16.3 µM
IC50 (A 172, A-172, read-out: IC50): 19.9 µM
IC50 (A204, A-204, read-out: IC50): 13.9 µM
IC50 (A388, cervix, read-out: pIC50 (converted)): 14.5 µM
IC50 (A388, read-out: IC50): 14.5 µM
IC50 (A498, A-498, read-out: IC50): 24.9 µM
IC50 (A549, A-549, read-out: IC50): 19.1 µM
IC50 (A704, A704, kidney, read-out: pIC50 (converted)): 34 µM
IC50 (A704, A-704, read-out: IC50): > 100 µM
IC50 (A-375, A375, read-out: IC50): 16.1 µM
IC50 (A-427, A-427, read-out: IC50): 11.7 µM
IC50 (ACHN, read-out: IC50): 21.1 µM
IC50 (AN3-CA, AN3 CA, read-out: IC50): 18.3 µM
IC50 (ASPC1, AsPC-1, read-out: IC50): 14.8 µM
IC50 (AU565, AU-565, read-out: IC50): 12.2 µM
IC50 (BT-20, BT-20, read-out: IC50): 29.8 µM
IC50 (BT-549, BT-549, read-out: IC50): 22.7 µM
IC50 (BXPC-3, BxPC-3, read-out: IC50): 19.1 µM
IC50 (C-33-A, C-33 A, read-out: IC50): 14.6 µM
IC50 (CAL-27, CAL 27, read-out: IC50): 17.1 µM
IC50 (CCRF-CEM, CCRFCEM, blood, read-out: pIC50 (converted)): 11.7 µM
IC50 (CCRF-CEM, read-out: IC50): 11.7 µM
IC50 (COLO 205, COLO 205, read-out: IC50): 18.5 µM
IC50 (COLO-829, COLO 829, read-out: IC50): 16.8 µM
IC50 (DLD-1, DLD1, large_intestine, read-out: pIC50 (converted)): 13.8 µM
IC50 (DLD-1, DLD-1, read-out: IC50): 13.8 µM
IC50 (DU-145, DU 145, read-out: IC50): 19.3 µM
IC50 (Daoy, read-out: IC50): 15.9 µM
IC50 (DoTc2-4510, DoTc2 4510, read-out: IC50): 16.7 µM
IC50 (FaDu, read-out: IC50): 16.1 µM
IC50 (HCT-15, HCT-15, read-out: IC50): 12 µM
IC50 (HCT-116, HCT 116, read-out: IC50): 15.9 µM
IC50 (Hs-578T, Hs 578T, read-out: IC50): 13.7 µM
IC50 (J82, J82, read-out: IC50): 15.8 µM
IC50 (Jurkat E6.1, Jurkat E6.1, read-out: IC50): 12.5 µM
IC50 (K562, K-562, read-out: IC50): 10.9 µM
IC50 (KU812, KU812, read-out: IC50): 10.4 µM
IC50 (LNCaP, LNCaP FGC, read-out: IC50): > 100 µM
IC50 (LS174T, LS 174T, read-out: IC50): 13 µM
IC50 (LoVo, read-out: IC50): 19.3 µM
IC50 (MCF7, MCF7, read-out: IC50): 12.7 µM
IC50 (MG-63, MG63, bone, read-out: pIC50 (converted)): 20.4 µM
IC50 (MG-63, MG-63, read-out: IC50): 20.4 µM
IC50 (MIA PaCa-2, MIA PaCa-2, read-out: IC50): 10.9 µM
IC50 (MOLT-4, MOLT-4, read-out: IC50): 12 µM
IC50 (MeWo, read-out: IC50): 17.3 µM
IC50 (NCI-H82, NCI-H82, read-out: IC50): 13.7 µM
IC50 (NCI-H460, NCI-H460, read-out: IC50): 22.5 µM
IC50 (OVCAR-3, OVCAR-3, read-out: IC50): 14.3 µM
IC50 (PA-1, PA-1, read-out: IC50): 11.6 µM
IC50 (RKO, read-out: IC50): 8.87 µM
IC50 (RPMI-7951, RPMI-7951, read-out: IC50): 16.2 µM
IC50 (RT-4, RT4, read-out: IC50): 16.5 µM
IC50 (SHP77, SHP-77, read-out: IC50): 11.9 µM
IC50 (SJCRH30, read-out: IC50): 18.4 µM
SMILES: CCCCCCCCc1ccc(OCC(=O)c2nc(C(=O)OC)cs2)cc1 [GK470]
average panel 10logIC50 (10log of IC50 in nM, panel average): 4.20
raw signal, dose-response (Figure S7a) (CCRF-CEM, Log10 M -4): 6827 and 7267
raw signal, dose-response (Figure S7a) (CCRF-CEM, Log10 M -6): 6001427 and 6137653
raw signal, dose-response (Figure S7a) (CCRF-CEM, Log10 M -6.5): 6250880 and 6122947
raw signal, dose-response (Figure S7a) (CCRF-CEM, Log10 M -7): 6208933 and 6388787
raw signal, dose-response (Figure S7a) (CCRF-CEM, Log10 M -7.5): 5662213 and 5677453
raw signal, dose-response (Figure S7a) (CCRF-CEM, Log10 M -8): 5954640 and 6349707
